Assays:
West Nile virus = test: anti-West Nile virus activity of xanthine analogs in HEK293 cells; assay type: cell-based; conditions: HEK293, read-out: EC90 (effective concentration to inhibit 90% of virus)
[1] = cell viability assay (cytotoxicity) in HEK293 cells; assay type: cell-based; conditions: human, read-out: CC50 (50% cytotoxicity concentration)

SMILES	EC90 (West Nile virus) [µM]	CC50 [1] [µM]
Cc1ccc(C)c(CN2CCN(c3nc4c(c(=O)[nH]c(=O)n4C)n3Cc3ccccc3F)CC2)c1 [Compound 1, 8-(4-(2,5-dimethylbenzyl)piperazin-1-yl)-7-(2-fluorobenzyl)-3-methyl-3,7-dihydro-1H-purine-2,6-dione]	1.2	12
Cc1ccc(C)c(CN2CCN(c3nc4c(c(=O)n(C)c(=O)n4C)n3Cc3ccccc3F)CC2)c1 [Compound 2, 8-(4-(2,5-dimethylbenzyl)piperazin-1-yl)-7-(2-fluorobenzyl)-1,3-dimethyl-3,7-dihydro-1H-purine-2,6-dione]	1.1	> 40
Cc1ccc(C)c(CN2CCN(c3nc4c([nH]3)c(=O)n(Cc3ccccc3F)c(=O)n4C)CC2)c1 [Compound 3, 8-(4-(2,5-dimethylbenzyl)piperazin-1-yl)-1-(2-fluorobenzyl)-3-methyl-3,7-dihydro-1H-purine-2,6-dione]	> 10	> 40
Cn1c(=O)n(O)c(=O)c2c1nc(N1CCN(Cc3ccc(C(C)(C)C)cc3)CC1)n2Cc1ccccc1F [Compound 4, 8-(4-(4-(tert-butyl)benzyl)piperazin-1-yl)-7-(2-fluorobenzyl)-1-hydroxy-3-methyl-3,7-dihydro-1H-purine-2,6-dione]	> 30	> 40
Cn1c(=O)n(CO)c(=O)c2c1nc(N1CCN(Cc3ccc(C(C)(C)C)cc3)CC1)n2Cc1ccccc1F [Compound 5, 8-(4-(4-(tert-butyl)benzyl)piperazin-1-yl)-7-(2-fluorobenzyl)-1-(hydroxymethyl)-3-methyl-3,7-dihydro-1H-purine-2,6-dione]	1.2	16.8
Cn1c(=O)n(CCO)c(=O)c2c1nc(N1CCN(Cc3ccc(C(C)(C)C)cc3)CC1)n2Cc1ccccc1F [Compound 6, 8-(4-(4-(tert-butyl)benzyl)piperazin-1-yl)-7-(2-fluorobenzyl)-1-(2-hydroxyethyl)-3-methyl-3,7-dihydro-1H-purine-2,6-dione]	6	12
CCn1c(N2CCN(Cc3cc(C)ccc3C)CC2)nc2c1c(=O)[nH]c(=O)n2C [Compound 8, 8-(4-(2,5-Dimethylbenzyl)piperazin-1-yl)-7-ethyl-3-methyl-3,7-dihydro-1H-purine-2,6-dione]	> 10	> 40
Cc1ccc(C)c(CN2CCN(c3nc4c(c(=O)[nH]c(=O)n4C)n3CC3CCCCC3)CC2)c1 [Compound 9, 7-(Cyclohexylmethyl)-8-(4-(2,5-dimethylbenzyl)piperazin-1-yl)-3-methyl-3,7-dihydro-1H-purine-2,6-dione]	4.4	> 40
Cc1ccc(C)c(CN2CCN(c3nc4c(c(=O)[nH]c(=O)n4C)n3Cc3ccccc3C#N)CC2)c1 [Compound 11, 2-((8-(4-(2,5-Dimethylbenzyl)piperazin-1-yl)-3-methyl-2,6-dioxo-1,2,3,6-tetrahydro-7H-purin-7-yl)methyl)benzonitrile]	6.9	> 30
Cc1ccc(C)c(CN2CCN(c3nc4c(c(=O)[nH]c(=O)n4C)n3Cc3ccccc3C(F)(F)F)CC2)c1 [Compound 12, 8-(4-(2,5-Dimethylbenzyl)piperazin-1-yl)-3-methyl-7-(2-(trifluoromethyl)benzyl)-3,7-dihydro-1H-purine-2,6-dione]	1.1	12
Cc1ccc(C)c(CN2CCN(c3nc4c(c(=O)[nH]c(=O)n4C)n3Cc3cccc(F)c3)CC2)c1 [Compound 13, 8-(4-(2,5-Dimethylbenzyl)piperazin-1-yl)-7-(3-fluorobenzyl)-3-methyl-3,7-dihydro-1H-purine-2,6-dione]	5.7	> 30
Cc1ccc(C)c(CN2CCN(c3nc4c(c(=O)[nH]c(=O)n4C)n3Cc3ccc(F)cc3)CC2)c1 [Compound 14, 8-(4-(2,5-Dimethylbenzyl)piperazin-1-yl)-7-(4-fluorobenzyl)-3-methyl-3,7-dihydro-1H-purine-2,6-dione]	6.1	> 30
Cc1ccc(C)c(CN2CCN(c3nc4c(c(=O)[nH]c(=O)n4C)n3Cc3ccc(F)cc3F)CC2)c1 [Compound 15, 7-(2,4-Difluorobenzyl)-8-(4-(2,5-dimethylbenzyl)piperazin-1-yl)-3-methyl-3,7-dihydro-1H-purine-2,6-dione]	> 10	> 40
Cn1c(=O)[nH]c(=O)c2c1nc(N1CCN(Cc3ccc(C(C)(C)C)cc3)CC1)n2Cc1ccccc1C(F)(F)F [Compound 16, 8-(4-(4-(tert-Butyl)benzyl)piperazin-1-yl)-3-methyl-7-(2-(trifluoromethyl)benzyl)-3,7-dihydro-1H-purine-2,6-dione]	1.2	12.4
Cn1c(=O)[nH]c(=O)c2c1nc(N1CCN(Cc3ccc(C(C)(C)C)cc3)CC1)n2Cc1ccccc1OC(F)(F)F [Compound 17, 8-(4-(4-(tert-Butyl)benzyl)piperazin-1-yl)-3-methyl-7-(2-(trifluoromethoxy)benzyl)-3,7-dihydro-1H-purine-2,6-dione]	1.2	10.2
COC(=O)c1ccc(Cn2c(N3CCN(Cc4ccc(C(C)(C)C)cc4)CC3)nc3c2c(=O)[nH]c(=O)n3C)c(F)c1 [Compound 18, methyl 4-((8-(4-(4-(tert-butyl)benzyl)piperazin-1-yl)-3-methyl-2,6-dioxo-1,2,3,6-tetrahydro-7H-purin-7-yl)methyl)-3-fluorobenzoate]	5.2	21.4

SMILES	EC90 (West Nile virus) [µM]	CC50 [1] [µM]
Cn1c(=O)[nH]c(=O)c2c1nc(N1CCN(Cc3ccc(C(C)(C)C)cc3)CC1)n2Cc1ccc(C(=O)O)cc1F [Compound 19, 4-((8-(4-(4-(tert-butyl)benzyl)piperazin-1-yl)-3-methyl-2,6-dioxo-1,2,3,6-tetrahydro-7H-purin-7-yl)methyl)-3-fluorobenzoic Acid]	> 10	> 40
Cn1c(=O)[nH]c(=O)c2c1nc(N1CCN(Cc3ccc(C(C)(C)C)cc3)CC1)n2Cc1ccncc1F [Compound 20, 8-(4-(4-(tert-Butyl)benzyl)piperazin-1-yl)-7-((3-fluoropyridin-4-yl)methyl)-3-methyl-3,7-dihydro-1H-purine-2,6-dione]	2.6	22.1
Cn1c(=O)[nH]c(=O)c2c1nc(N1CCOCC1)n2Cc1ccccc1F [Compound 22, 7-(2-Fluorobenzyl)-3-methyl-8-morpholino-3,7-dihydro-1H-purine-2,6-dione]	> 10	> 40
Cc1ccc(C)c(N2CCN(c3nc4c(c(=O)[nH]c(=O)n4C)n3Cc3ccccc3F)CC2)c1 [Compound 26, 8-(4-(2,5-Dimethylphenyl)piperazin-1-yl)-7-(2-fluorobenzyl)-3-methyl-3,7-dihydro-1H-purine-2,6-dione]	4.5	2.8
Cc1cc(C)cc(N2CCN(c3nc4c(c(=O)[nH]c(=O)n4C)n3Cc3ccccc3F)CC2)c1 [Compound 27, 8-(4-(3,5-Dimethylphenyl)piperazin-1-yl)-7-(2-fluorobenzyl)-3-methyl-3,7-dihydro-1H-purine-2,6-dione]	10	> 30
Cn1c(=O)[nH]c(=O)c2c1nc(N1CCN(CC(=O)c3ccc(C(C)(C)C)cc3)CC1)n2Cc1ccccc1F [Compound 49, 8-(4-(2-(4-(tert-butyl)phenyl)-2-oxoethyl)piperazin-1-yl)-7-(2-fluorobenzyl)-3-methyl-3,7-dihydro-1H-purine-2,6-dione]	> 10	
Cn1c(=O)[nH]c(=O)c2c1nc(N1CCC(F)(F)C1)n2Cc1ccccc1F [Compound 51, 8-(3,3-Difluoropyrrolidin-1-yl)-7-(2-fluorobenzyl)-3-methyl-3,7-dihydro-1H-purine-2,6-dione]	> 10	
Cn1c(=O)[nH]c(=O)c2c1nc(N1CCC(F)(F)CC1)n2Cc1ccccc1F [Compound 53, 8-(4,4-Difluoropiperidin-1-yl)-7-(2-fluorobenzyl)-3-methyl-3,7-dihydro-1H-purine-2,6-dione]	> 10	
Cn1c(=O)[nH]c(=O)c2c1nc(N1CCC(C(C)(C)C)CC1)n2Cc1ccccc1F [Compound 54, 8-(4-(tert-Butyl)piperidin-1-yl)-7-(2-fluorobenzyl)-3-methyl-3,7-dihydro-1H-purine-2,6-dione]	1.5	
Cn1c(=O)[nH]c(=O)c2c1nc(N1CCC(C(F)(F)F)CC1)n2Cc1ccccc1F [Compound 55, 7-(2-Fluorobenzyl)-3-methyl-8-(4-(trifluoromethyl)piperidin-1-yl)-3,7-dihydro-1H-purine-2,6-dione]	> 10	
Cn1c(=O)[nH]c(=O)c2c1nc(N1CCC(c3ccc(C#N)cc3)CC1)n2Cc1ccccc1F [Compound 58, 4-(1-(7-(2-Fluorobenzyl)-3-methyl-2,6-dioxo-2,3,6,7-tetrahydro-1H-purin-8-yl)piperidin-4-yl)benzonitrile]	> 10	
Cn1c(=O)[nH]c(=O)c2c1nc(N1CCC(Cc3ccc(C#N)cc3)CC1)n2Cc1ccccc1F [Compound 59, 4-((1-(7-(2-Fluorobenzyl)-3-methyl-2,6-dioxo-2,3,6,7-tetrahydro-1H-purin-8-yl)piperidin-4-yl)methyl)benzonitrile]	> 10	
Cn1c(=O)[nH]c(=O)c2c1nc(N1CCC(Cc3ccc(F)cc3)CC1)n2Cc1ccccc1F [Compound 60, 7-(2-Fluorobenzyl)-8-(4-(4-fluorobenzyl)piperidin-1-yl)-3-methyl-3,7-dihydro-1H-purine-2,6-dione]	> 10	
Cn1c(=O)[nH]c(=O)c2c1nc(N1CCC(Cc3cc(F)cc(F)c3)CC1)n2Cc1ccccc1F [Compound 61, 8-(4-(3,5-Difluorobenzyl)piperidin-1-yl)-7-(2-fluorobenzyl)-3-methyl-3,7-dihydro-1H-purine-2,6-dione]	> 10	
Cn1c(=O)[nH]c(=O)c2c1nc(N1CCC(Cc3cccnc3)CC1)n2Cc1ccccc1F [Compound 62, 7-(2-Fluorobenzyl)-3-methyl-8-(4-(pyridin-3-ylmethyl)piperidin-1-yl)-3,7-dihydro-1H-purine-2,6-dione]	12.4	
Cc1ccc(C)c(CNCCNc2nc3c(c(=O)[nH]c(=O)n3C)n2Cc2ccccc2F)c1 [Compound 63, 8-((2-((2,5-dimethylbenzyl)amino)ethyl)amino)-7-(2-fluorobenzyl)-3-methyl-3,7-dihydro-1H-purine-2,6-dione]	> 10	

Reference: patent publication US11578073B2, “Xanthine analogs as potent anti-West Nile viral agents” (Southern Research Institute, priority 2019, dated 2023)
